We go through 48 compounds from ChEMBL document CHEMBL4400552, “Design, synthesis and biological evaluation of novel human monoamine oxidase B inhibitors based on a fragment in an X-ray crystal structure” (Bioorg Med Chem Lett, 2019).

Series [1] addresses T1, Amine oxidase [flavin-containing] A (Homo sapiens, UniProt P21397).
T1 sequence (P21397 whole entry): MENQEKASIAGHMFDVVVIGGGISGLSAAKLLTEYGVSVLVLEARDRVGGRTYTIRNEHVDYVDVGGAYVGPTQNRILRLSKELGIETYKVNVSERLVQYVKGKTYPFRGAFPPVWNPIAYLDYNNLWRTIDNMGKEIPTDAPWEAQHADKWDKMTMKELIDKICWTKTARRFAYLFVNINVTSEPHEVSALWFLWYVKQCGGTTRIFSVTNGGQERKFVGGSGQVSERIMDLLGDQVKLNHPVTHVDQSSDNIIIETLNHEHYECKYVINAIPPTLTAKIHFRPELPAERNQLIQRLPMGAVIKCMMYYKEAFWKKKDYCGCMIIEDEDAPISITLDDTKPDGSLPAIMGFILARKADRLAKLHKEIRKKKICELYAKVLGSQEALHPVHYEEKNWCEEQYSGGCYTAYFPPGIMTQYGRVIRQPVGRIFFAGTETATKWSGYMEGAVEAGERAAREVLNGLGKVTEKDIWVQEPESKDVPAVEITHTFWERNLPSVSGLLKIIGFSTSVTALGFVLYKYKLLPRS
The series can be described thus: Inhibition of human recombinant MAO-A expressed in insect cells using p-tyramine as substrate preincubated for 30 mins followed by substrate addition measured for 15 mins by resorufin dye-based fluorescence assay.

The target of series [2] is T2, Amine oxidase [flavin-containing] B (Homo sapiens, UniProt P27338).
T2 sequence (P27338 whole entry): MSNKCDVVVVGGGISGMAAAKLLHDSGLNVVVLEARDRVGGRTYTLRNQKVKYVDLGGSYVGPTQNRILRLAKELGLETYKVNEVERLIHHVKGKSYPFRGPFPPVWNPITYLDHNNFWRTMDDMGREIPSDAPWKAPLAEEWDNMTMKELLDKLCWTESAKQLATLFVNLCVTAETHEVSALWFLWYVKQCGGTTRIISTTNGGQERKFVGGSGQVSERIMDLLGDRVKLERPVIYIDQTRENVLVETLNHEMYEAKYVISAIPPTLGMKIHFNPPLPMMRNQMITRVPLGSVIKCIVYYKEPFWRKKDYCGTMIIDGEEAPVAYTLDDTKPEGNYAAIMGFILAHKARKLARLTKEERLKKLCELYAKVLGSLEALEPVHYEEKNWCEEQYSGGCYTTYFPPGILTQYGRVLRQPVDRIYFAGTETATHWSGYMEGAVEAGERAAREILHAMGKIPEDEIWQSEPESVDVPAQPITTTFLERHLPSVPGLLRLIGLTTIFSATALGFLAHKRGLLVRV
The series can be described thus: Inhibition of human recombinant MAO-B expressed in insect cells using p-tyramine as substrate preincubated for 30 mins followed by substrate addition measured for 15 mins by resorufin dye-based fluorescence assay. Format: cell-based.

The species named for the next series is Homo sapiens. The series is described as follows: Selectivity index, ratio of IC50 for human recombinant MAO-A expressed in insect cells to IC50 for human recombinant MAO-B expressed in insect cells.
Series [3] has as its target T2, Amine oxidase [flavin-containing] B. The series is described as follows: Inhibition of human recombinant MAO-B expressed in insect cells at 1 uM using p-tyramine as substrate preincubated for 30 mins followed by substrate addition measured for 15 mins by resorufin dye-based fluorescence assay relative to control. Conditions: 0.25 h; for inhibition at 1 µM: read-out: INH; for INH: 1 µM; call rule not given here.

Some results are limits rather than exact numbers.

In general, IC50 refers to the concentration needed to halve the response being measured. On to `Cn1c(=O)[nH]c2cc(OCc3cccc(Cl)c3)ccc21`, for which the IC50 was more than 500 µM in series [1] and 34.3 µM in series [2]. Besides, the Ratio IC50 in the series listed under Homo sapiens is more than 14.6. Also, the inhibition at 1 µM in series [3] came to 23.4%.

As to `O=C1Nc2ccc(OCCc3ccc(F)cc3)cc2C1=O`, the results for the IC50 in series [1] and in series [2] were more than 500 µM and 0.102 µM, respectively. Also, the Ratio IC50 in the series filed under Homo sapiens was more than 4900. For the same compound, the inhibition at 1 µM in series [3] was determined as 68.7%.

Regarding `CCn1c(=O)[nH]c2ccc(OCCCc3ccccc3)cc21`, the inhibition at 1 µM in series [3] is 4.56%.

On to `CCn1c(=O)[nH]c2ccc(OCCOc3ccc(OC)cc3)cc21`, for which the inhibition at 1 µM in series [3] was determined as 13.9%.

With `O=C1Nc2ccc(OCc3ccc(F)cc3)cc2C1=O`, the IC50 in series [1] turned out to be 235 µM; in series [2], 0.073 µM. For the same compound, the Ratio IC50 in the series filed under Homo sapiens was 3210. Besides, the inhibition at 1 µM in series [3] stood at 92.5%.

As for `CC1(C)C(=O)Nc2ccc(OCCOc3ccccc3)cc21`, the INH result in series [3] was “Not Active”.

In the case of `O=C1Nc2ccc(OCc3cccc(Cl)c3)cc2C1=O`, the IC50 was determined as 311 µM in series [1] and 0.046 µM in series [2]. Also, the Ratio IC50 in the series listed under Homo sapiens was 6760. For the same compound, the inhibition at 1 µM in series [3] turned out to be 93%.

Take `O=C1Cc2cc(OCc3ccc(Cl)c(Cl)c3)ccc2N1`: the IC50 in series [1] is more than 500 µM; in series [2], 17.2 µM. The Ratio IC50 in the series filed under Homo sapiens is more than 29.1. The inhibition at 1 µM in series [3] is 12.4%.

Turning to `CC1(C)C(=O)Nc2ccc(OCc3ccc(F)cc3)cc21`, the INH result in series [3] is given as “Not Active”.

As to `CCn1c(=O)[nH]c2ccc(OCCOc3ccc(C(C)C)cc3)cc21`, the IC50 in series [1] is more than 500 µM; in series [2] it was 278 µM. Also, in the series listed under Homo sapiens, the Ratio IC50 was more than 1.8. For the same compound, the inhibition at 1 µM in series [3] was 19%.

With `CCn1c(=O)[nH]c2ccc(OCc3ccc(C(F)(F)F)cc3)cc21`, the results for the IC50 in series [1] and in series [2] were more than 500 µM and 184 µM, respectively. The Ratio IC50 in the series filed under Homo sapiens is more than 2.71. Also, the inhibition at 1 µM in series [3] was found to be 22.8%.

In the case of `CC1(C)C(=O)Nc2ccc(OCCc3ccccc3)cc21`, the INH result in series [3] was “Not Active”.

With `CCn1c(=O)[nH]c2ccc(OCCOc3ccc(Cl)cc3)cc21`, in series [3], the inhibition at 1 µM was 7.24%.

Regarding `Cc1ccc(COc2ccc3c(c2)C(C(C)C)C(=O)N3)cc1` (configuration not stated), the INH entry in series [3] was “Not Active”.

On to `CC1(C)C(=O)Nc2ccc(OCc3ccc(Cl)c(Cl)c3)cc21`, for which the figures for the IC50 in series [1] and in series [2] were more than 500 µM and 132 µM, respectively. The Ratio IC50 in the series filed under Homo sapiens is more than 3.78. The inhibition at 1 µM in series [3] amounted to 28.8%.

In the case of `O=C1Cc2cc(OCCc3ccc(F)cc3)ccc2N1`, the figures for the IC50 in series [1] and in series [2] were more than 500 µM and 190 µM, respectively. Moreover, in the series listed under Homo sapiens, the Ratio IC50 was more than 2.63. Also, the inhibition at 1 µM in series [3] came out at 18.1%.

With `Cn1c(=O)[nH]c2cc(OCc3ccccc3)ccc21`, the INH entry in series [3] is given as “Not Active”.

Consider `Cn1c(=O)[nH]c2ccc(OCCc3ccccc3)cc21`, for which, in series [3], the INH result was “Not Active”.

Turning to `CC(C)=C1C(=O)Nc2ccc(OCCc3ccccc3)cc21`, the INH result in series [3] was “Not Active”.

Consider `CC(C)n1c(=O)[nH]c2ccc(OCCOc3ccc(Cl)cc3)cc21`, for which the inhibition at 1 µM in series [3] was 18.2%.

On to `CC(C)n1c(=O)[nH]c2ccc(OCCOc3cccc(F)c3)cc21`, for which the inhibition at 1 µM in series [3] is 12.9%.

In the case of `Cn1c(=O)[nH]c2ccc(OCc3cccc(F)c3)cc21`, the inhibition at 1 µM in series [3] is 5.36%.

`Cn1c(=O)[nH]c2ccc(OCc3cccc(Cl)c3)cc21`: the inhibition at 1 µM in series [3] was 8.89%.

As for `Cn1c(=O)[nH]c2ccc(OCCCc3ccccc3)cc21`, the IC50 in series [1] is more than 500 µM; in series [2] it was 59.6 µM. In the series filed under Homo sapiens, the Ratio IC50 was more than 8.39. Also, the inhibition at 1 µM in series [3] was 14%.

As to `CCn1c(=O)[nH]c2ccc(OCCOc3cccc(F)c3)cc21`, the IC50 was more than 500 µM in series [1] and 190 µM in series [2]. Further, the Ratio IC50 in the series filed under Homo sapiens is more than 2.62. The inhibition at 1 µM in series [3] was 30.3%.

With `CC(C)=C1C(=O)Nc2ccc(OCc3cccc(C)c3)cc21`, in series [3], the INH entry is given as “Not Active”.

For the compound `CC(C)c1ccc(OCCOc2ccc3[nH]c(=O)n(C(C)C)c3c2)cc1`, the IC50 in series [1] is more than 500 µM; in series [2], 66.7 µM. In addition, the Ratio IC50 in the series listed under Homo sapiens is more than 7.49. The inhibition at 1 µM in series [3] was 14.1%.

For the compound `O=C1Nc2ccc(OCc3ccc(Cl)c(Cl)c3)cc2C1=O`, the IC50 in series [1] turned out to be 117 µM; in series [2] it was 0.003 µM. In addition, in the series filed under Homo sapiens, the Ratio IC50 stood at 38900. The inhibition at 1 µM in series [3] worked out at 95.7%.

For the compound `Cn1c(=O)[nH]c2ccc(OCCOc3ccc(Cl)cc3)cc21`, in series [3], the inhibition at 1 µM is 9.94%.

`CCn1c(=O)[nH]c2ccc(OCCCOc3ccccc3)cc21`: the inhibition at 1 µM in series [3] amounted to 11.3%.

As to `Cn1c(=O)[nH]c2cc(OCCc3ccccc3)ccc21`, the INH entry in series [3] is “Not Active”.

For the compound `Cn1c(=O)[nH]c2ccc(OCc3ccc(Cl)c(Cl)c3)cc21`, the figures for the IC50 in series [1] and in series [2] were more than 500 µM and 7.68 µM, respectively. In addition, the Ratio IC50 in the series listed under Homo sapiens is more than 65. Besides, the inhibition at 1 µM in series [3] worked out at 32.4%.

With `CC(C)=C1C(=O)Nc2ccc(OCc3ccc(F)cc3)cc21`, the INH entry in series [3] is on record as “Not Active”.

For the compound `Cn1c(=O)[nH]c2cc(OCCCc3ccccc3)ccc21`, the INH entry in series [3] was “Not Active”.

Consider `Cc1ccc(COc2ccc3c(c2)C(C)C(=O)N3)cc1` (racemic), for which the INH entry in series [3] is listed as “Not Active”.

In the case of `Cc1ccc(COc2ccc3c(c2)C(C)(C)C(=O)N3)cc1`, the INH result in series [3] is reported as “Not Active”.

With `CC(C)=C1C(=O)Nc2ccc(OCCOc3ccccc3)cc21`, in series [3], the INH entry is “Not Active”.

As for `O=C1Cc2cc(OCc3ccc(F)cc3)ccc2N1`, the IC50 was more than 500 µM in series [1] and 24.9 µM in series [2]. The Ratio IC50 in the series listed under Homo sapiens is more than 20.1. The inhibition at 1 µM in series [3] came out at 19.6%.

With `Cn1c(=O)[nH]c2ccc(OCc3ccccc3)cc21`, in series [3], the INH result is “Not Active”.

As for `COc1ccc(OCCOc2ccc3c(c2)C(=C(C)C)C(=O)N3)cc1`, the INH result in series [3] is “Not Active”.

Regarding `CC(C)=C1C(=O)Nc2ccc(OCc3cccc(F)c3)cc21`, in series [3], the INH result is listed as “Not Active”.

With `Cn1c(=O)[nH]c2ccc(OCCc3cccc(Cl)c3)cc21`, the inhibition at 1 µM in series [3] was found to be 13.7%.

On to `Cn1c(=O)[nH]c2ccc(OCc3ccc(Cl)cc3)cc21`, for which the results for the IC50 in series [1] and in series [2] were more than 500 µM and 56.4 µM, respectively. In addition, the Ratio IC50 in the series listed under Homo sapiens is more than 8.87. The inhibition at 1 µM in series [3] came out at 8.29%.

With `CC(C)C1C(=O)Nc2ccc(OCc3cccc(F)c3)cc21` (configuration not stated), the values for the IC50 in series [1] and in series [2] were more than 500 µM and 397 µM, respectively. In addition, the Ratio IC50 in the series filed under Homo sapiens was more than 1.62. In addition, the inhibition at 1 µM in series [3] came to 12.7%.

For `CCn1c(=O)[nH]c2ccc(OCc3cccc(C(F)(F)F)c3)cc21`, the inhibition at 1 µM in series [3] was determined as 12.5%.

Turning to `Cn1c(=O)[nH]c2ccc(OCCc3ccc(Cl)cc3)cc21`, the inhibition at 1 µM in series [3] was found to be 19.9%.

With `COc1ccc(OCCOc2ccc3[nH]c(=O)n(C(C)C)c3c2)cc1`, the inhibition at 1 µM in series [3] came to 15.5%.

For `CC1(C)C(=O)Nc2ccc(OCc3cccc(Cl)c3)cc21`, the IC50 in series [1] is more than 500 µM; in series [2] it was 279 µM. Also, the Ratio IC50 in the series filed under Homo sapiens is more than 1.79. In series [3], the inhibition at 1 µM amounted to 21.1%.
